{"source": "patent US20100204161A1", "about": "“Substances and Pharmaceutical Compositions for the Inhibition of Glyoxalases and Their Use Against Bacteria” (BIOMAC PRIVATINSTITUT FUR MEDIZINISHE UND ZAHMEDIZ …, priority 2005, published 2010)", "key": {"[1]": {"tested_on": "different microbial species: Candida spp., Escherichia coli, Klebsiella oxytoca, Pseudomonas aeruginosa, Enterococcus faecalis, Enterococcus faecium, MRSA …", "experiment": "Agar dilution antimicrobial susceptibility test, aerobic conditions", "settings": "12.5 mM to 40 mM in agar, 37° C., 20 hours, 21 strains incl. ESBL and MRSA, FIG. 8", "procedure": "The agar dilution method was used for antimicrobial susceptibility test. A series of plates (petri dishes; Greiner, Cat No. 933161) were prepared with 20 ml agar medium (Iso-Sensitest-Agar Ca. No. CM474, OXOID, Germany) to which various concentrations of EP (12.5 mM to 40 mM) were added. Control agar plates were prepared without EP. The plates are then inoculated with a suitable-standardized suspension of the test microbial species (10^4 cfu) using an automated spotter (spots 1-21). The agar plates were incubated under aerobic conditions at 37° C. for 20 hours. At the respective positions of the spots growth (if permissive under the selected conditions) will result in the formation of cell discs. The evaluation of the test results is performed by inspecting the sizes of these discs. […]"}, "yeast glyoxalase I": {"target": "T1, yeast glyoxalase I (Saccharomyces cerevisiae, UniProt P50107)", "T1 construct": "purchased Sigma G-4252", "T1 sequence (P50107 1-326)": "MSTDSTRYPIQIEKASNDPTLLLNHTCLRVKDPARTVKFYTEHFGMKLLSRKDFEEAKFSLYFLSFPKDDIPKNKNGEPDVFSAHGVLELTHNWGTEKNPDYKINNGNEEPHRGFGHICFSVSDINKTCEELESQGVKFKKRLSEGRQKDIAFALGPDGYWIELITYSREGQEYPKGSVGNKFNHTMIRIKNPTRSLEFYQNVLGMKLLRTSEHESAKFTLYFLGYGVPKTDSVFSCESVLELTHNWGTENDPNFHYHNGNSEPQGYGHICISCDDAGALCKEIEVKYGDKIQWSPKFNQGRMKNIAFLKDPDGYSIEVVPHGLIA", "experiment": "Enzymatic activity of yeast glyoxalase I (formation of S-D-lactoyl-glutathione, 240 nm)", "type": "biochemical", "settings": "increasing concentrations (0-30 mM in Example 5); FIG. 1-3; listed as EP", "protocol": "Measuring glyoxalase I (E.C.4.4.1.5, lactoyl-glutathione lyase Sigma, G-4252) was performed according to the instructions of McLellan and Thornalley (1989). The principle is based on measuring the initial rate of formation of S-D-lactoyl-glutathione from methylglyoxal (Sigma, MO252, 40%) and reduced L-glutathione (Aldrich, G-4251, >99%). The formation of the product is observed using the extinction coefficient e=2.86 mM-1 cm-1 at 240 nm. The measurement was performed in 50 mM sodium phosphate buffer, pH 7.0. For that purpose 2 mM methylglyoxal and 2 mM reduced glutathione were incubated for 2 minutes at 30° C. for the formation of the hemithioacetal. Thereafter 20 μl of a 1 to 1000 dilution of the glyoxalase I (Sigma, G-4252) was added to 1 ml of the measuring reagent to start the reaction.\n(§1) Glyoxalase activity (IU) corresponds to the amount of enzyme forming 1 μmol of S-D-lactoyl-glutathione/min.\nDetermination of glyoxalase I activity was performed according to the general protocol as described above. The influence of ethyl pyruvate on enzyme activity was investigated by addition of increasing concentrations of EP (Sigma; no. E4, 780-8; lot. S18972-513) to the measuring reagent.\nDetermination of glyoxalase I activity was performed according to the general protocol as described above. The influence of compounds of the general formula (I), (II), and (III) on the activity of the enzyme was investigated by addition of increasing concentrations of these compounds to the preparation. The IC50-values were calculated from inhibition curves of each compound.\nDetermination of glyoxalase I activity was performed according to the general protocol as described above. The influence of 2-oxopropanethioic acid S-ethyl ester on the activity of the enzyme was investigated by addition of increasing concentrations of SE to the preparation for the measurement.\nDetermination of glyoxalase I activity was performed according to the general protocol as described above. The influence of effectors on the enzymatic activity was investigated by addition of increasing concentrations (0-30 mM) of EP (Sigma; no. E4, 780-8; lot. S18972-513) (triangle), BP (prepared according to the instructions of patent JP 11080089; 98%) (circle) and BL (Fluka, 69819; lot. 443090/1 21503090) (squares) to the measuring reagent (FIG. 3)."}, "[2]": {"target": "T2, glyoxalase I of human erythrocytes (Homo sapiens, UniProt Q04760)", "T2 construct": "from tissue; host or cells: human erythrocyte lysate", "T2 sequence (Q04760 2-184 limits assumed)": "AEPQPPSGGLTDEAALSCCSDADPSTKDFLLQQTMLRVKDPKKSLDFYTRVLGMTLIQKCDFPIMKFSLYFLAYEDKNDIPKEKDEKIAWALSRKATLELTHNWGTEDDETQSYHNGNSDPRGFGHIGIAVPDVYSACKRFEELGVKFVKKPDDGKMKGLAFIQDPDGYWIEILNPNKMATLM", "experiment": "Enzymatic activity of human erythrocyte glyoxalase I (erythrocyte lysate)", "type": "biochemical", "settings": "0-50 mM; FIG. 5", "protocol": "The determination of glyoxalase I was performed as described above for the yeast enzyme. After the formation of the hemithioacetal, suitable amounts (5 to 100 μl) of an erythrocyte lysate were added to 1 ml of the measuring reagent to start the reaction. The erythrocyte lysate was prepared according to the instructions of Mannervik et al. (1982).\nas §1\nDetermination of glyoxalase I activity was performed according to the general protocol as described above. The influence of ethyl pyruvate on enzyme activity was investigated by addition of increasing concentrations of EP (Sigma; no. E4, 780-8; lot. S18972-513) (0-50 mM) to the measuring reagent."}}, "note": "“Also recorded” adds a separate entry of the source.", "data": [{"compound": "CCOC(=O)C(C)=O", "note": "[Ethyl pyruvate]", "values": [{"measurement": "Effect on growth of different microbial species", "setting": "[1]", "value": "effectively inhibits the growth and proliferation of different microbial species"}, {"measurement": "Influence on the enzymatic activity of yeast glyoxalase I", "setting": "yeast glyoxalase I", "value": "inhibits the reaction of yeast glyoxalase I in a concentration dependent manner; also recorded: inhibit the activity of glyoxalase I in a concentration dependent manner"}, {"measurement": "Inhibition of the enzymatic activity of glyoxalase I of human erythrocytes", "setting": "[2]", "value": "inhibits the reaction of glyoxalase I of human erythrocytes in a concentration dependent manner"}]}]}
